From US5410024A, “Human cancer inhibitory pentapeptide amides” (Arizona Board of Regents acting on behalf of Arizona State …, priority 1993, dated 1995)

How the values were obtained:
Assay type in all cases: cell-based
human tumor cell lines = assay: Inhibition of human tumor cell lines (general statements); conditions: for GI50: for at least six cell lines
Source text: Current research in the control of cancer in the United States is coordinated by the National Cancer Institute (NCI). To determine whether a substance has anti-cancer properties, the NCI has established a systematic protocol. This protocol, which involves the testing of a substance against a standard cell line panel containing 60 human tumor cell lines, has been verified and is accepted in scientific circles. The protocol, and the established statistical means for analyzing the results obtained by the standardized testing are fully described in the literature. See: Boyd, Dr. Michael R., Principles & Practice of Oncology, PPO Updates, Volume 3, Number 10, October 1989, for an in depth description of the testing protocol; and Paull, K. D., "Display and Analysis of Patterns of Differential Activity of Drugs Against Human Tumor Cell Lines; Development of Mean Graph and COMPARE Algorithm", Journal of the National Cancer Institute Reports, Vol. 81, No. 14, Page 1088, Jul. 14, 1989 for a description of the methods of statistical analysis. Both of these references are incorporated herein by this reference thereto.

OVCAR-3 = assay: NCI human tumor cell line screen, Ovarian OVCAR-3; conditions: for GI-50 / LC-50 / TGI: Ovarian OVCAR-3
Source text: (§1) Current research in the control of cancer in the United States is coordinated by the National Cancer Institute (NCI). To determine whether a substance has anti-cancer properties, the NCI has established a systematic protocol. […] The protocol, and the established statistical means for analyzing the results obtained by the standardized testing are fully described in the literature. […] Both of these references are incorporated herein by this reference thereto.

SF-295 = assay: NCI human tumor cell line screen, CNS SF-295; conditions: for GI-50 / LC-50 / TGI: CNS SF-295
Source text: as §1

A498 = assay: NCI human tumor cell line screen, Renal A498; conditions: for GI-50 / LC-50 / TGI: Renal A498
Source text: as §1

NCI-H460 = assay: NCI human tumor cell line screen, Lung-NSC NCI-H460; conditions: for GI-50 / LC-50 / TGI: Lung-NSC NCI-H460
Source text: as §1

KM20L2 = assay: NCI human tumor cell line screen, Colon KM20L2; conditions: for GI-50 / LC-50 / TGI: Colon KM20L2; for GI50, minipanel cell line E: minipanel comparison
Source text: as §1

SK-MEL-5 = assay: NCI human tumor cell line screen, Melanoma SK-MEL-5; conditions: for GI-50 / LC-50 / TGI: Melanoma SK-MEL-5
Source text: as §1

Substance | GI-50 (OVCAR-3) [µg/mL] | LC-50 (OVCAR-3) [µg/mL] | TGI (OVCAR-3) [ng/mL] | GI-50 (SF-295) [µg/mL] | LC-50 (SF-295) [µg/mL] | TGI (SF-295) [ng/mL] | GI-50 (A498) [µg/mL] | LC-50 (A498) [µg/mL] | TGI (A498) [ng/mL] | GI-50 (NCI-H460) [µg/mL] | LC-50 (NCI-H460) [µg/mL] | TGI (NCI-H460) [ng/mL] | GI-50 (KM20L2) [µg/mL] | LC-50 (KM20L2) [µg/mL] | TGI (KM20L2) [ng/mL] | GI-50 (SK-MEL-5) [µg/mL] | LC-50 (SK-MEL-5) [µg/mL] | TGI (SK-MEL-5) [ng/mL] | further results
(R)-Doe-isoDolastatin 10 [reference compound] |  |  |  |  |  |  |  |  |  |  |  |  |  |  |  |  |  |  | human cancer cell line activity as compared to Dolastatin 10 (human tumor cell lines): did not show any significant difference
L-Dolavalyl-L-Valyl-N-Methyl-(S,S,R)-Dolaisoleucyl-(S,R,R)-Dolaproyl-L-Phenylalanineamide-N-(1-adamantane) [Compound 9j] | 0.000019 | > 0.0001 | 0.055 | 0.000030 | > 0.0001 | > 0.1 | 0.000034 | > 0.0001 | > 0.1 | 0.000014 | > 0.0001 | 0.057 | 0.000027 | > 0.0001 | 0.072 | 0.000022 | > 0.0001 | > 0.1 | 
L-Dolavalyl-L-Valyl-N-Methyl-(S,S,R)-Dolaisoleucyl-(S,R,R)-Dolaproyl-L-Phenylalanineamide-N-(2-benzothiazole) [Compound 9e] | 0.000000033 |  | 0.00019 | 0.00000011 |  | 0.00096 |  |  | > 0.001 | 0.000000039 |  | 0.00044 |  |  | 0.0007 | 0.000000030 |  | > 0.001 | GI50, minipanel cell line C (A498; minipanel comparison, column C (key not visible; values match A498)): 0.00023 ng/mL; GI50, minipanel cell line E (KM20L2): 0.00026 ng/mL; GI50 (human tumor cell lines): less than 10^-7 μg/ml
L-Dolavalyl-L-Valyl-N-Methyl-(S,S,R)-Dolaisoleucyl-(S,R,R)-Dolaproyl-L-Phenylalanineamide-N-(2-thiazole) [Compound 9a] | 0.0000005 | 0.000088 | 0.0044 | 0.0000038 |  | > 0.1 | 0.0000056 |  | 0.09 | 0.0000018 |  | 0.009 | 0.0000020 |  | 0.011 | 0.0000014 |  | 0.08 | 
L-Dolavalyl-L-Valyl-N-Methyl-(S,S,R)-Dolaisoleucyl-(S,R,R)-Dolaproyl-L-Phenylalanineamide-N-(3-quinoline) [Compound 9g] |  | > 0.000001 | 7.9e-05 |  | > 0.000001 | 0.00061 | 0.000000100 | > 0.000001 | > 0.001 |  | > 0.000001 | 0.00012 |  | > 0.000001 | 0.00023 |  | > 0.000001 | > 0.001 | GI50, minipanel cell line A (OVCAR-3; minipanel comparison, column A (key not visible; values match OVCAR-3)): 4.6e-07 ng/mL; GI50, minipanel cell line B (SF-295; minipanel comparison, column B (key not visible; values match SF-295)): 4e-05 ng/mL; GI50, minipanel cell line D (NCI-H460; minipanel comparison, column D (key not visible; values match NCI-H460)): 1.3e-05 ng/mL; GI50, minipanel cell line E (KM20L2): 3.9e-05 ng/mL; GI50, minipanel cell line F (SK-MEL-5; minipanel comparison, column F (key not visible; values match SK-MEL-5)): 3e-06 ng/mL; GI50 (human tumor cell lines): less than 10^-7 μg/ml
L-Dolavalyl-L-Valyl-N-Methyl-(S,S,R)-Dolaisoleucyl-(S,R,R)-Dolaproyl-L-Phenylalanineamide-N-(methenyl-2-pyridine) [Compound 9i] | 0.000056 | > 0.01 | 2 | 0.00036 | > 0.01 | > 10 | 0.00059 | > 0.01 | > 10 | 0.000051 | > 0.01 | 1 | 0.00033 | > 0.01 | > 10 | 0.000029 | > 0.01 | > 10 | 
L-Dolavalyl-L-Valyl-N-Methyl-(S,S,R)-Dolaisoleucyl-(S,R,R)-Dolaproyl-L-Phenylalanineamide-N-(methenyl-2-thiophene) [Compound 9h] | < 0.000001 | 0.0097 | 0.28 | 0.00014 | > 0.01 | > 10 | 0.000055 | > 0.01 | 6.9 | 0.0000089 | > 0.01 | 0.37 | 0.000049 | > 0.01 | 1.3 | < 0.000001 | > 0.01 | > 10 | 
L-Dolavalyl-L-Valyl-N-Methyl-(S,S,R)-Dolaisoleucyl-(S,R,R)-Dolaproyl-L-Phenylalanineamide-N-[2-(1,3,4-thiadiazole)] [Compound 9d] | 0.0000031 | > 0.0001 | 0.16 | 0.000024 | > 0.0001 | > 0.1 | 0.000039 | > 0.0001 | > 0.1 | 0.0000036 | > 0.0001 | 0.061 | 0.0000099 | 0.00069 | 0.015 | 0.0000082 | 0.00043 | 0.007 | 
L-Dolavalyl-L-Valyl-N-Methyl-(S,S,R)-Dolaisoleucyl-(S,R,R)-Dolaproyl-L-Phenylalanineamide-N-[2-(4-methylthiazole)] [Compound 9b] | 0.00000020 |  | 0.012 | 0.0000026 | > 0.0001 | > 0.1 | 0.0000053 | > 0.0001 | > 0.1 | 0.00000046 | > 0.0001 | 0.013 | 0.0000034 | > 0.0001 | 0.017 | 0.00000081 | > 0.0001 | > 0.1 | 
L-Dolavalyl-L-Valyl-N-Methyl-(S,S,R)-Dolaisoleucyl-(S,R,R)-Dolaproyl-L-Phenylalanineamide-N-[2-(4-phenylthiazole)] [Compound 9c] | 0.000020 | > 0.001 | 0.13 | 0.000065 | > 0.001 | > 1 | 0.000057 | > 0.001 | 0.72 | 0.000056 | > 0.001 | 0.51 | 0.0002 | > 0.001 | 0.75 | 0.000043 | > 0.001 | 0.33 | 
L-Dolavalyl-L-Valyl-N-Methyl-(S,S,R)-Dolaisoleucyl-(S,R,R)-Dolaproyl-L-Phenylalanineamide-N-[2-(6-methoxybenzo-thiazole)] [Compound 9f] | 0.00032 | > 0.01 | 1.1 | 0.00055 | > 0.01 | > 10 | 0.00037 | > 0.01 | > 10 | 0.00033 | > 0.01 | 1.6 | 0.00036 | > 0.01 | 2.2 | 0.000090 | > 0.01 | > 10 | 
